Tests used:
[1] = test system: Brown Norway rats, OVA sensitised and challenged; experiment: Rat model of allergic asthma: late asthmatic response (Penh, whole body plethysmography); assay type: in vivo, Brown Norway rat; settings: 1-6 hrs after OVA challenge; i.t. dosing
Method: (§1) Male, adult, Brown Norway rats were obtained from Charles River Germany at a body weight range of 250-300 g. Animals were housed in temperature controlled individually ventilated cages in groups of 4 with food and water provided ad libitum. Animals underwent acclimatisation for at least 1 week prior to experimentation. Experiments were performed in accordance with the UK Home Office guidelines for animal welfare based on the Animals (Scientific Procedures) Act of 1986 and the ARRIVE guidelines (Fig. E2).
Initially a time course study was performed, followed by a characterisation study with compound & clinical comparator. For both studies, rats were sensitised on day 0, 14 and 21 by an intraperitoneal (i.p.) injection of 4 mL/kg (1 mL/rat) of ovalbumin (OVA;100 μg/rat) in Imject™ Alum (20 mg/rat aluminium hydroxide and 20 mg/rat magnesium hydroxide) or sham sensitised (Saline [Sal] in Imject™ Alum). […]
In both studies, 30 mins post-challenge, rats were placed unrestrained in Perspex plethysmographs connected to bias flow pumps (DSI Europe Ltd), with food and water ad libitum. 55 mins post-challenge, a five mins baseline recording was taken and the average penh and area under the curve (AUC) was recorded at 10 mins intervals for a total duration of 5 hrs and was used for analysis (DSI Europe Ltd).

[2] = test system: Brown Norway rats, OVA sensitised and challenged; experiment: Rat model of allergic asthma: BAL cellular inflammation; assay type: in vivo, Brown Norway rat; settings: BAL 24 hrs after OVA challenge; i.t. dosing
Method: as §1
Initially a time course study was performed, followed by a characterisation study with compound & clinical comparator. For both studies, rats were sensitised on day 0, 14 and 21 by an intraperitoneal (i.p.) injection of 4 mL/kg (1 mL/rat) of ovalbumin (OVA;100 μg/rat) in Imject™ Alum (20 mg/rat aluminium hydroxide and 20 mg/rat magnesium hydroxide) or sham sensitised (Saline [Sal] in Imject™ Alum). On day 28 rats were challenged with 1% (w/v) aerosolised OVA in isotonic saline, or sham challenged with isotonic saline (30 mins).
Following blood collection, rats underwent tracheostomy and were cannulated. Rats were lavaged and bronchoalveolar lavage (BAL) fluid was collected (2 × 3 mL RPMI, 30 secs, 70% vol. retained). Slides were prepared using 100 μL of neat BAL, centrifuged (700 rpm, 5 mins, RT, low acceleration; Cytospin 2, Shandon, Runcorn, UK). 800 μL of neat BAL was collected and centrifuged (800×g, 10 mins, 4 °C). Supernatant was collected and stored (− 80 °C), and cell pellet was resuspended (200 μL, RPMI), total leukocytes were attained using a Sysmex XP-300 automated cell counter (Sysmex Ltd., Milton Keynes, UK). Remaining BAL was centrifuged (800×g, 10 mins, 4 °C) and supernatant collected and stored (− 80 °C).
BAL cytospin slides were placed in an automated stainer (Hematek 2000, Ames. Co., USA) and stained with a Modified-Wright stain (Siemens, Germany). Differential cell counts using a light microscope were performed based on morphological criteria were performed to determine percentages of macrophages/monocytes, lymphocytes, neutrophils & eosinophils. Total numbers of each distinct cell type were determined based on total leukocyte numbers.

[3] = test system: PI3K pathway (pAkt); experiment: Rat model of allergic asthma: lung tissue pAkt (T308), target engagement; assay type: in vivo, Brown Norway rat; settings: i.t. 1 hr before OVA challenge; AZD8154 0.02, 0.1, 0.3 mg/kg, budesonide 3 mg/kg; lung 2 hrs after challenge
Method: as §1
Initially a time course study was performed, followed by a characterisation study with compound & clinical comparator. […]
5 μL of supernatant (1:50 dilution) was taken for Bradford Assay which was run according to manufacturers’ instructions (BioRad, USA). […] Absorbance was measured using a spectrophotometer and total protein values interpolated to standard curve (595 nm; Spectromax, UK).
10 μg of protein from lung tissue extract were utilized in pAkt (T308); pSTAT3, pSTAT4 & STAT5a, b (Phospho-STAT Panel kit) MSD Assay plates (Meso Scale Delivery, USA) and run according to manufacturers’ instructions. Arbitrary electrochemiluminescence signals were read, the blank subtracted and values determined in each plate using a MSD S-Plex plate reader (Meso Scale Delivery, USA).

[4] = test system: asthma patients; settings: cited from earlier work
[5] = molecular target: rat PI3Kγ (Rattus norvegicus, UniProt D3ZFJ0); experiment: PI3K γ assay: CXCL1/CINC-1-stimulated CD11b expression on rat whole blood neutrophils (FACS); assay type: cell-based; settings: reference inhibitors, at the relevant concentration
Method: (§2) PI3K γ assay: whole blood from male Sprague Dawley rat was collected in heparin coated tubes and pre-treated (1 hr., 37 °C, 5% CO2) with vehicle DMSO or PI3K inhibitors followed by stimulation with Rat CXCL1/CINC-1 (515-CN-050, R&D) at 500 ng/mL (EC80 determined in house; 1 hr., RT). Next, cells were stained with Fc block (550,273, BD bioscience, 1:100; 20 mins, RT), CD45R-B220-PeCy7 (HIS24) (25–0460-82, eBioscience, 1:100), CD43-PE (W3/13) (202,812, Biolegend, 1:100), HIS48-FITC (11–0570-82, eBioscience, 1:100), CD11b-APC (562,102, BD Bioscience, 1:100). Cells were lysed and fixed with BD FACS lysing solution (349,202, BD Biosciences; 45 mins, RT) before FACS acquisition (BD LSRFortessa™). Data were analysed using FlowJo 9.9 software (TreeStar). FACS gating strategy: lymphocytes (FSC-A vs SSC-A), doublets exclusion (FSC-W vs FSC-H), neutrophil identification B220-, HIS48hi, CD43hi, SSC-Ahi, geom. MFI for CD11b on neutrophils. IC50 values were determined in Graph Pad through a nonlinear fit on log transform data: log inhibitor vs response, variable slope, 4 parameters. Fraction unbound in diluted whole blood is calculated using the following equation: fu^′=DF·fub/1+DF-1·fub where fu’ is the fraction unbound in diluted whole blood; fub is the fraction unbound in undiluted whole blood; DF is the dilution factor. Fraction unbound in 100% whole blood (fub) is calculated as fup/BP, where fup is the experimentally determined fraction unbound in undiluted plasma and BP is the experimentally determined blood to plasma partition ratio of drug Table 1.

[6] = molecular target: T1, rat PI3Kδ (Rattus norvegicus, UniProt A0A8I5Y949); experiment: PI3K δ assay: anti-IgM-stimulated CD86 expression on rat splenic B cells (FACS); assay type: cell-based; settings: reference inhibitors, at the relevant concentration
T1 sequence (A0A8I5Y949 1-1047): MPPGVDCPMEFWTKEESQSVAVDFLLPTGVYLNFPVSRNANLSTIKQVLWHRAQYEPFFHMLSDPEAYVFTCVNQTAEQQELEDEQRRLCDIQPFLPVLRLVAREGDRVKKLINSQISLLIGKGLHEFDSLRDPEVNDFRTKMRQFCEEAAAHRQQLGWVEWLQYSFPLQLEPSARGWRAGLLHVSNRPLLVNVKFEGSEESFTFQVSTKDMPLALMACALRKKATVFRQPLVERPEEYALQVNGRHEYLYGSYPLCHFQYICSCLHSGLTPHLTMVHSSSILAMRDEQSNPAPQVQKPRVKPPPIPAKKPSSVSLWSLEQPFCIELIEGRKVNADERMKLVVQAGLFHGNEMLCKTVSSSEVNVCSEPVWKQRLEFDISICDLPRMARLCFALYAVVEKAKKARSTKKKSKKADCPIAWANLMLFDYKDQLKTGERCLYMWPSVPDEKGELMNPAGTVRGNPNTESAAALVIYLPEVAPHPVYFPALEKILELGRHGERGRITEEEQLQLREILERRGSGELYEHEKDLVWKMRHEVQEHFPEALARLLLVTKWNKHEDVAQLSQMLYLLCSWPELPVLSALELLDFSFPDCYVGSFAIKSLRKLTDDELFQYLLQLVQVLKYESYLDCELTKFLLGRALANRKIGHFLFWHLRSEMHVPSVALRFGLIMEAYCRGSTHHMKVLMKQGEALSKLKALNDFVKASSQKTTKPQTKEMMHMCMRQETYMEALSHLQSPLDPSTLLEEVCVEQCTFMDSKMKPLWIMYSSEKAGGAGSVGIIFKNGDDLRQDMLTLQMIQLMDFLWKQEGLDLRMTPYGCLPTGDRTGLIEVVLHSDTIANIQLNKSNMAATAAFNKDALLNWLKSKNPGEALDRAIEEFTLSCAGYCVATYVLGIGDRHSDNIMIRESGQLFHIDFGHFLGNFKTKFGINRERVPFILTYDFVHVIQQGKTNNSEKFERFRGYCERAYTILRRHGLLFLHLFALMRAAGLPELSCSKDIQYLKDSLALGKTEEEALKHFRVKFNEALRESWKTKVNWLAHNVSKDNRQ
Method: (§3) PI3K δ assay: single cell suspension was obtained from the spleen of male Sprague Dawley rat; cells were cultured in RPMI containing heat-inactivated 10% FBS, pre-treated (1 hr., 37 °C, 5% CO2) with vehicle DMSO or PI3K inhibitors, followed by stimulation with AffiniPure F(ab’)2 Fragment Goat Anti-Rat IgM, μ chain specific, Jackson Immunoresearch (112–006-075) at 5 μg/mL (EC80 determined in house; 20–22 hrs). Then, cells were washed with FACS buffer (2% FBS, […]) and stained (15 mins, 4 °C) with Fc block (1:100, 550,273, BD bioscience), LIVE/DEAD Fixable Aqua Dead Cell Stain Kit (L34957, Invitrogen, 1:300), CD45R (B220)-PeCy7 (HIS24) (25–0460-82, eBioscience, 1:100), CD3-AF647 (IF4) (201,408, Biolegend, 1:100), CD86-FITC (24F) (200,305, Biolegend, 1:50). Cells were acquired on the Flow Cytometer (BD LSRFortessa™) and analysed using FlowJo 9.9 software (TreeStar). FACS gating strategy: lymphocytes (FSC-A vs SSC-A), doublets exclusion (FSC-W vs FSC-H), live cells (Aqua-530-), B cell identification CD3- B220 + % of positive B cells for CD86. IC50 values were determined in Graph Pad through a nonlinear fit on log transform data: log inhibitor vs response, variable slope, 4 parameters. Fraction unbound in in vitro assay is calculated using the following equation: fu^′=DF·fup/1+DF-1·fup where fu’ is the fraction unbound in assay media; fup is the experimentally determined fraction unbound in undiluted human plasma; DF is the dilution factor (fold difference between protein concentration in human plasma and assay media, using an albumin concentration of 600 μM (40 g/L) for undiluted plasma) Table 2.

[7] = Rat plasma protein binding, blood to plasma ratio, unbound fraction in whole blood; assay type: in vitro ADME; settings: for Rat fub: fraction unbound in 100% whole blood, fup/BP; for fraction unbound: rat
Method: as §2, with “Next,” for “PI3K γ assay: whole blood from male Sprague Dawley rat was collected in heparin coated tubes and pre-treated (1 hr., 37 °C, 5% CO2) with vehicle DMSO or PI3K inhibitors followed by stimulation with Rat CXCL1/CINC-1 (515-CN-050, R&D) at 500 ng/mL (EC80 determined in house; 1 hr., RT). Next,”

[8] = Human plasma protein binding and unbound fraction in assay media; assay type: in vitro ADME
Method: as §3

Sequence of rat PI3Kγ (D3ZFJ0 1-1102): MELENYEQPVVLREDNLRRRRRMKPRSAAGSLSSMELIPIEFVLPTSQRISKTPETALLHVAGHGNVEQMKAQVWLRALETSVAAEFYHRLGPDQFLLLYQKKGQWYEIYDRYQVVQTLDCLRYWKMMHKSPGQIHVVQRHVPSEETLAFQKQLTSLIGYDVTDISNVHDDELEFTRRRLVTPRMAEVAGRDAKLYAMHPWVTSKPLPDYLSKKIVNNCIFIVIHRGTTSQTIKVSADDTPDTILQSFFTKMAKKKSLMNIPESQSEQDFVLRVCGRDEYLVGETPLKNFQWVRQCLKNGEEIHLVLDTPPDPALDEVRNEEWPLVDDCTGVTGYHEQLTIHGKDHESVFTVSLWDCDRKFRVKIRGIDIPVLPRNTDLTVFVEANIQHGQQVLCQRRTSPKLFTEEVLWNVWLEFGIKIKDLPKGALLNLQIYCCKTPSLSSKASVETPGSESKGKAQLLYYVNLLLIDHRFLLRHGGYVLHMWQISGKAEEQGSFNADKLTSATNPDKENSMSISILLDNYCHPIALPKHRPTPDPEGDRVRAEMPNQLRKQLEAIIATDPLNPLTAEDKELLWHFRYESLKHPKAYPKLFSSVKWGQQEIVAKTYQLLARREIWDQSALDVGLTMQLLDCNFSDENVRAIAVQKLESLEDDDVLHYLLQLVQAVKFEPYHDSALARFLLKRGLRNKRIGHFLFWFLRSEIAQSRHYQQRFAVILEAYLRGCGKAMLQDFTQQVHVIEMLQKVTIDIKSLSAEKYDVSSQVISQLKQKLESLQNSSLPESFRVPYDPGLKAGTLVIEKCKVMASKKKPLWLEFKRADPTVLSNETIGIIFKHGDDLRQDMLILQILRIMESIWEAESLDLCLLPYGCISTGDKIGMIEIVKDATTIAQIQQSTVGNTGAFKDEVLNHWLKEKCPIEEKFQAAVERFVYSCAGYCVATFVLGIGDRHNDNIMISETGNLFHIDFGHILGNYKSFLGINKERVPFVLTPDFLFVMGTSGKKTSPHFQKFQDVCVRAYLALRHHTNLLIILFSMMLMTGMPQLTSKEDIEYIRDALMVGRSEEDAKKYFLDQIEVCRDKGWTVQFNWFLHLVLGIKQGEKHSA

## CCCC1O[C@@H]2C[C@H]3[C@@H]4CCC5=CC(=O)C=C[C@]5(C)[C@H]4[C@@H](O)C[C@]3(C)[C@]2(C(=O)CO)O1 (some centres unmarked) [budesonide]
[1]
  LAR (Penh, AUC): inhibiting the lung function change
[2]
  BAL eosinophils: reversing these key features to basal levels
  BAL neutrophils: reversing these key features to basal levels
  BAL total leukocytes: reversing these key features to basal levels
[3]
  lung tissue pAkt levels: dramatic inhibition

## CC(C)N1CCN(Cc2cnc(-c3cc(-c4cccc5[nH]ccc45)cc4[nH]ncc34)o2)CC1 [Nemarisilib]
[4]; inhaled
  asthma symptoms in clinical trials: no improvement in asthma symptoms
  cough propensity in clinical trials: increase in cough propensity

## CC(=O)Nc1nc(C)c(-c2cc3c(c(S(C)(=O)=O)c2)C(=O)N([C@@H](C)C2CC2)C3)s1 [AZD3458]
[5]
  effect in PI3Kγ assay (CD11b expression): blocked their respective assay
[6]
  effect in PI3Kδ assay (CD86 expression): had no impact on the other assay
[7]
  Rat fub: 0.200

## CC(C)N1CCN(Cc2cnc(-c3cc(-c4cccc5[nH]ccc45)cc4[nH]ncc34)o2)CC1 [GSK2269557]
[5]
  effect in PI3Kγ assay (CD11b expression): had no impact on the other assay
[8]; human plasma, fraction unbound, read-out: Human ppb (fu, %)
  fraction unbound: 0.021
[8]; human, assay media (PI3K δ assay), fraction unbound in assay media (δ assay, RPMI 10% FBS), read-out: Fu’
  fraction unbound: 0.177
[6]
  effect in PI3Kδ assay (CD86 expression): blocked their respective assay
[7]; blood to plasma partition ratio
  Rat B/P ratio: 0.88
[7]
  Rat fub: 0.050
[7]; diluted whole blood (PI3K γ assay), fraction unbound in diluted whole blood, DF 1.05 (γ assay), read-out: fu’
  fraction unbound: 0.0524
[7]; plasma, rat plasma, fraction unbound, read-out: Rat ppb (fu, %)
  fraction unbound: 0.044
[7]; plasma, undiluted rat plasma, fraction, read-out: Rat plasma fu
  fraction unbound: 0.044

## C[C@H](Nc1ncnc2nc[nH]c12)c1cc2cccc(Cl)c2c(=O)n1-c1ccccc1 [duvelisib]
[4]; oral
  effect in clinical asthma trials: beneficial effects

— article PMC11040934, “PI3Kγδ inhibition suppresses key disease features in a rat model of asthma” (Respiratory Research, 2024)
